ChEMBL document CHEMBL4014354, “2'-Chloro,2'-fluoro Ribonucleotide Prodrugs with Potent Pan-genotypic Activity against Hepatitis C Virus Replication in Culture” (J Med Chem, 2017)

Columns and labels:
in vitro [1] = details: human, liver microsomes
Description: Metabolic stability in human liver microsomes assessed as parent compound remaining at 1 uM at 60 mins by LC-MS/MS analysis

in vitro [2] = details: human, liver microsomes; remark: listed apart in the source
Description: Half life in human liver microsomes at 1 uM by LC-MS/MS analysis

in vitro [3] = details: human, liver microsomes; remark: listed apart in the source
Description: Clearance in human liver microsomes at 1 uM by LC-MS/MS analysis

Hepatitis C virus [4] = assay: Antiviral activity against HCV genotype 1a infected in human HuH7 cells assessed as inhibition of viral RNA replication after 96 hrs by RT-PCR method; type: functional, cell-based, Hepacivirus hominis; details: subtype 1a, Huh-7, 96 h
Hepatitis C virus [5] = assay: Antiviral activity against HCV genotype 2a/k infected in human HuH7 cells assessed as inhibition of viral RNA replication after 96 hrs by RT-PCR method; type: functional, cell-based, Hepacivirus hominis; details: Huh-7, 96 h
Hepatitis C virus [6] = assay: Antiviral activity against HCV genotype 1b infected in human HuH7 cells assessed as inhibition of viral RNA replication after 96 hrs by RT-PCR method; type: functional, cell-based, Hepacivirus hominis; details: Huh-7, 96 h
Hepatitis C virus [7] = assay: Antiviral activity against HCV genotype 2b infected in human HuH7 cells assessed as inhibition of viral RNA replication after 96 hrs by RT-PCR method; type: functional, cell-based, Hepacivirus hominis; details: Huh-7, 96 h
Hepatitis C virus [8] = assay: Antiviral activity against HCV genotype 4 infected in human HuH7 cells assessed as inhibition of viral RNA replication after 96 hrs by RT-PCR method; type: functional, cell-based, Hepacivirus hominis; details: genotype 4, Huh-7, 96 h
Hepatitis C virus [9] = assay: Antiviral activity against HCV genotype 3a infected in human HuH7 cells assessed as inhibition of viral RNA replication after 96 hrs by RT-PCR method; type: functional, cell-based, Hepacivirus hominis; details: Huh-7, 96 h
[10] = Metabolic stability in human blood assessed as compound remaining at 2 uM after 2 hrs by LC-MS/MS method; type: ADME, tissue-based; details: read-out: Stability
HepG2 [11] = assay: Cytotoxicity against human HepG2 cells assessed as inhibition of nuclear DNA levels measured on day 14 by RT-PCR method; details: HepG2, 336 h
nuclear DNA levels [12] = assay: in vitro; details: human, HepG2 cells
[13] = test system: cytochrome c oxidase subunit 2 DNA (mitochondrial DNA) levels; assay: in vitro; details: human, HepG2 cells
[14] = test system: cytochrome c oxidase subunit 2 DNA (mitochondrial DNA) levels; assay: Mitochondrial toxicity in human HepG2 cells assessed as inhibition of cytochrome c oxidase subunit 2 DNA levels measured on day 14 by RT-PCR method; type: cell-based
HepG2 [15] = assay: Mitochondrial toxicity in human HepG2 cells assessed as cytochrome c oxidase subunit 2 DNA levels at 10 uM measured on day 14 by RT-PCR method relative to nuclear beta-actin DNA levels; details: hepg2, 10 µM
HepG2 [16] = assay: Mitochondrial toxicity in human HepG2 cells assessed as lactic acid production at 10 uM measured on day 14 by spectrophotometric method relative to control; type: cell-based; details: hepg2, 10 µM
[17] = Inhibition of RNA polymerase 2 isolated from human HeLa cell nuclear extract assessed as decrease in incorporation of P32-alpha-CTP after 2 hrs by scintillation counting method; type: cell-free
[18] = Inhibition of human DNA polymerase gamma using 5' end radiolabeled 24nt DNA/36nt DNA as primer/template after 120 mins by PAGE analysis
[19] = target: DNA-directed RNA polymerase, mitochondrial (Homo sapiens) (UniProt O00411); assay: Inhibition of human POLRMT using 5'-P32-RNA/DNA hybrid assessed as incorporation of UTP at 100 uM after 2 hrs by scintillation counting method relative to control; set-up: scale not given: the % may be the effect or the level left
[20] = target: T1, DNA polymerase alpha catalytic subunit (Homo sapiens, UniProt P09884); assay: Inhibition of human DNA polymerase alpha using 5' end radiolabeled 24nt DNA/48nt DNA as primer/template after 5 mins by PAGE analysis
T1 sequence (P09884 whole entry): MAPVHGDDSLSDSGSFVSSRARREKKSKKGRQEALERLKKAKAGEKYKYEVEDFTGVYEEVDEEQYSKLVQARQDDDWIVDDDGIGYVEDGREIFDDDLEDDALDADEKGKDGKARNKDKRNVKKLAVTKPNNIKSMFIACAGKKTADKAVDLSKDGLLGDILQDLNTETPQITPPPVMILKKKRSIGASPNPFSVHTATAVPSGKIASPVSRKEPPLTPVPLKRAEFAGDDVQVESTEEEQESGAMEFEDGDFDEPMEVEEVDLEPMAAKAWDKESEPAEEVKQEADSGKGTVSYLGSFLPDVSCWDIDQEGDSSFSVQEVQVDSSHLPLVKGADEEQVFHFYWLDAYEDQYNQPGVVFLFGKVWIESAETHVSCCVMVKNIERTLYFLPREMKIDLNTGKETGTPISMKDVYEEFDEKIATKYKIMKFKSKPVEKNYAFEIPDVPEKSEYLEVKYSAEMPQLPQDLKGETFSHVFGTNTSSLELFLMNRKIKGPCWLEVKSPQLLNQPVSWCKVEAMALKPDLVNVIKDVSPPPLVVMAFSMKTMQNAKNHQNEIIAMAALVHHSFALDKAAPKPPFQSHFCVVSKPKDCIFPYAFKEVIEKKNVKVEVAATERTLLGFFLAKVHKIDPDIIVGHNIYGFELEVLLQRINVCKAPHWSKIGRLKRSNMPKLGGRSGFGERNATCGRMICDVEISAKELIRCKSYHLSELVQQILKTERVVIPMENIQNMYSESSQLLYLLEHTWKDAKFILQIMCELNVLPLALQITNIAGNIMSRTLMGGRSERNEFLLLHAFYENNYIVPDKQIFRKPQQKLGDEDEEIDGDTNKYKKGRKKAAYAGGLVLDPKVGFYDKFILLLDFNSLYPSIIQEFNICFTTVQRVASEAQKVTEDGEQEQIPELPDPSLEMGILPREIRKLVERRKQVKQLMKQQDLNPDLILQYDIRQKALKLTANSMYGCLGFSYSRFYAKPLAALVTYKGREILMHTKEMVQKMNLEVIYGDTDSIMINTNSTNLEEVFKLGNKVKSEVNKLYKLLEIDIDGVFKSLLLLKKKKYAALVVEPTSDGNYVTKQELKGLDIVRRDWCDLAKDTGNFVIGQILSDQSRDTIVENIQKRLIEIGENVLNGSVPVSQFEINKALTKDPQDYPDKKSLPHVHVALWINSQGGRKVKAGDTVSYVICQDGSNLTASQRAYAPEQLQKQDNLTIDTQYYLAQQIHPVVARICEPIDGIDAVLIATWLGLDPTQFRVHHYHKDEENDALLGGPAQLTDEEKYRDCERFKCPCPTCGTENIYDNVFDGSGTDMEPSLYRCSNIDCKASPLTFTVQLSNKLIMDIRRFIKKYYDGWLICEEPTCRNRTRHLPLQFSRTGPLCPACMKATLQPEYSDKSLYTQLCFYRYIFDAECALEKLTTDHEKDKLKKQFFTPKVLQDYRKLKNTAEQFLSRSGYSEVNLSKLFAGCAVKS

DNA polymerase beta = DNA polymerase beta (Homo sapiens, UniProt P06746); assay: Inhibition of human DNA polymerase beta using 5' end radiolabeled 24nt DNA/48nt DNA as primer/template after 5 mins by PAGE analysis
[21] = Cytotoxicity against human HuH7 cells assessed as inhibition of cell proliferation after 4 days by MTS assay; type: cell-based, Huh-7
Hepatitis C virus [22] = assay: Antiviral activity against HCV genotype 1b harboring wild type NS5B infected in human HuH7 cells assessed as inhibition of viral RNA replication after 5 days by RT-PCR method; type: functional, cell-based, Hepacivirus hominis; details: Huh-7, 120 h
HepG2 [23] = assay: Mitochondrial toxicity in human HepG2 cells assessed as cytochrome c oxidase subunit 2 DNA levels at 50 uM measured on day 14 by RT-PCR method relative to nuclear beta-actin DNA levels; type: cell-based; details: hepg2, 50 µM
[24] = test system: cytochrome c oxidase subunit 2 DNA (mitochondrial DNA) levels; assay: Mitochondrial toxicity in human HepG2 cells assessed as inhibition of cytochrome c oxidase subunit 2 DNA levels at 50 uM measured on day 14 by RT-PCR method relative to nuclear beta-actin DNA levels; type: cell-based
HepG2 [25] = assay: Mitochondrial toxicity in human HepG2 cells assessed as lactic acid production at 50 uM measured on day 14 by spectrophotometric method relative to control; type: cell-based; details: hepg2, 50 µM
[26] = Cytotoxicity against human CEM cells assessed as inhibition of cell proliferation after 4 days by MTT assay; type: cell-based, CCRF-CEM
[27] = Cytotoxicity against African green monkey Vero cells assessed as inhibition of cell proliferation after 3 days by MTT assay; type: cell-based; details: chlorocebus sabaeus
nuclear DNA levels [28] = assay: Cytotoxicity against human HepG2 cells assessed as inhibition of nuclear DNA levels at 50 uM measured on day 14 by RT-PCR method relative to nuclear beta-actin DNA levels; type: cell-based; details: read-out: INH
[29] = Cytotoxicity against human PBMC assessed as inhibition of cell proliferation after 5 days by MTT assay; type: cell-based

DNA-directed RNA polymerase, mitochondrial (Homo sapiens), sequence (O00411 whole entry): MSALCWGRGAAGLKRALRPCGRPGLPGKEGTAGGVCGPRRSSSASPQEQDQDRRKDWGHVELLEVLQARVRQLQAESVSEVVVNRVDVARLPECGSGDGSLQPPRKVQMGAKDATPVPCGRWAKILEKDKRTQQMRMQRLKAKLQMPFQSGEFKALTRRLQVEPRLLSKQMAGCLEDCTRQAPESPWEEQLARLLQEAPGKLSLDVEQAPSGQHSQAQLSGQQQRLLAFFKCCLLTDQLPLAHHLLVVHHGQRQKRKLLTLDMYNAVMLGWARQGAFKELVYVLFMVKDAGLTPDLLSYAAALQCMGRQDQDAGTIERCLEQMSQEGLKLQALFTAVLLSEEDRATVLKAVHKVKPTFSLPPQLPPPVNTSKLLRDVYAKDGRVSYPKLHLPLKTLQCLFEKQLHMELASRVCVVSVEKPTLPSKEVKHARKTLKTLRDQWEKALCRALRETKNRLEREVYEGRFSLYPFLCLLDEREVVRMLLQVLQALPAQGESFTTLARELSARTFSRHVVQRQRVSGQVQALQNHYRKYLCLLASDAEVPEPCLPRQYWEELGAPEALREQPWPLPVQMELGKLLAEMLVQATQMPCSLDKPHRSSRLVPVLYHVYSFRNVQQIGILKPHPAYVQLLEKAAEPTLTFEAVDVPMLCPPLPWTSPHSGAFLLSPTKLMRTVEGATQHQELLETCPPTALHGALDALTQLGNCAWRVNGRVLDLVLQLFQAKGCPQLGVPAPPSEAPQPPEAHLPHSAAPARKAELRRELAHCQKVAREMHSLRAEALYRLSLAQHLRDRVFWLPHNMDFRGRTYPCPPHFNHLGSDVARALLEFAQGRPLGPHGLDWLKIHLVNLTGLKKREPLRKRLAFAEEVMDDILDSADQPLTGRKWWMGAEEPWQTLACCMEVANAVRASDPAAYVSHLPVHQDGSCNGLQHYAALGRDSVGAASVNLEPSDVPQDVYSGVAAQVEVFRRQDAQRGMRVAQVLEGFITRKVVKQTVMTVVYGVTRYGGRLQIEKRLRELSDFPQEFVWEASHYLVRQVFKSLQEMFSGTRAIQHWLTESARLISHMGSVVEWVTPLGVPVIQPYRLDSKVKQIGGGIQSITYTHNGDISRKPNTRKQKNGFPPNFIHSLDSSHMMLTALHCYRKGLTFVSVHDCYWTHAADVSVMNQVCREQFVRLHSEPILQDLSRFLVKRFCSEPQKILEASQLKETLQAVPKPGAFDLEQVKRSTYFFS

Q: With C[C@]12CC[C@H]3[C@@H](CCC4=CC(=O)CC[C@@]43C)[C@@H]1CC[C@@H]2O [TESTOSTERONE] as the compound, how does the remaining at 1 h, 1 µM (in vitro [1]) read?
A: 6.3%

Q: And the half-life at 1 µM (in vitro [2])?
A: 15 min

Q: And the microsomal CLint at 1 µM (in vitro [3])?
A: 92 µL/min/mg

Q: Which results are given for C[C@@]1(F)[C@H](O)[C@@H](CO)O[C@H]1n1ccc(=O)[nH]c1=O?
A: IC50 (Hepatitis C virus [4]): > 100 µM; IC50 (Hepatitis C virus [5]): > 100 µM; IC50 (Hepatitis C virus [6]): > 100 µM; IC50 (Hepatitis C virus [7]): > 100 µM; IC50 (Hepatitis C virus [8]): > 100 µM; IC50 (Hepatitis C virus [9]): > 100 µM

Q: Which results are given for O=C(O)Cc1ccccc1Nc1c(Cl)cccc1Cl [DICLOFENAC]?
A: remaining at 1 h, 1 µM (in vitro [1]): 1.2%; half-life at 1 µM (in vitro [2]): 8.9 min; microsomal CLint at 1 µM (in vitro [3]): 156 µL/min/mg

Q: For CC1CC(OC(=O)C(O)c2ccccc2)CC(C)(C)N1C (centres undefined) [EUCATROPINE], which remaining at 2 h, 2 µM [10] is on record?
A: 19%

Q: What does the source list for Nc1ccn([C@H]2CC[C@@H](CO)O2)c(=O)n1 [ZALCITABINE]?
A: IC50 (HepG2 [11]): < 10 µM; cytotoxicity at 14 days, 10 µM (nuclear DNA levels [12]): 53%; inhibition at 14 days, 10 µM [13]: 96%; IC50 at 14 days [14]: < 10 µM; Activity (HepG2 [15]): 9.5%; Activity (HepG2 [16]): 330%

Q: For CC[C@H](C)[C@@H]1NC(=O)CNC(=O)[C@@H]2Cc3c([nH]c4cc(O)ccc34)[S+]([O-])C[C@@H](NC(=O)CNC1=O)C(=O)N[C@@H](CC(N)=O)C(=O)N1C[C@H](O)C[C@H]1C(=O)N[C@@H]([C@@H](C)[C@@H](O)CO)C(=O)N2 (stereo partly drawn) [alpha-Amanitin], which IC50 [17] is on record?
A: 0.0025 µM

Q: What does the source list for C[C@@]1(F)[C@H](O)[C@@H](COP(=O)(O)OP(=O)(O)OP(=O)(O)O)O[C@H]1n1ccc(=O)[nH]c1=O [GS-461203]?
A: IC50 [18]: > 100 µM; IC50 [17]: > 100 µM; Activity [19]: 3.1%; IC50 [20]: > 100 µM; IC50 (DNA polymerase beta): > 100 µM

Q: With Cc1cn([C@H]2CC[C@@H](COP(=O)(O)OP(=O)(O)OP(=O)(O)O)O2)c(=O)[nH]c1=O as the compound, how does the IC50 [18] read?
A: 43 µM

Q: And the IC50 (DNA polymerase beta)?
A: 19 µM

Q: For O=c1ccn([C@@H]2O[C@H](CO)[C@@H](O)[C@]2(F)Cl)c(=O)[nH]1, which IC50 (Hepatitis C virus [4]) is on record?
A: > 60 µM

Q: What about the IC50 (HepG2 [11]) of the same compound?
A: > 50 µM

Q: And the CC50 at 96 h [21]?
A: > 100 µM

Q: What about the IC50 (Hepatitis C virus [5]) of the same compound?
A: > 60 µM

Q: What about the IC50 (Hepatitis C virus [6]) of the same compound?
A: > 60 µM

Q: And the cytotoxicity at 14 days, 10 µM (nuclear DNA levels [12])?
A: 8.8%

Q: What about the EC50 (Hepatitis C virus [22]) of the same compound?
A: > 100 µM

Q: What about the EC90 (Hepatitis C virus [22]) of the same compound?
A: > 100 µM

Q: What about the inhibition at 14 days, 10 µM [13] of the same compound?
A: < 1%

Q: And the Activity (HepG2 [23])?
A: 120%

Q: And the IC50 at 14 days [14]?
A: > 50 µM

Q: And the IC50 (Hepatitis C virus [7])?
A: > 60 µM

Q: What about the inhibition at 14 days, 50 µM [24] of the same compound?
A: < 1%

Q: What about the Activity (HepG2 [25]) of the same compound?
A: 120%

Q: And the Activity (HepG2 [15])?
A: 160%

Q: What about the CC50 at 96 h [26] of the same compound?
A: > 100 µM

Q: What about the CC50 at 72 h [27] of the same compound?
A: > 100 µM

Q: And the IC50 (Hepatitis C virus [8])?
A: > 60 µM

Q: What about the cytotoxicity at 14 days, 50 µM (nuclear DNA levels [28]) of the same compound?
A: < 1%

Q: And the Activity (HepG2 [16])?
A: 85%

Q: What about the CC50 at 120 h [29] of the same compound?
A: > 100 µM

Q: What about the IC50 (Hepatitis C virus [9]) of the same compound?
A: > 60 µM
